Reference: US9126999B2, “Tetrahydropyrazolopyrimidine compounds” (EISAI R&D MANAGEMENT CO., LTD., priority 2012, dated 2015)

Columns and labels:
[1] = system: T1, Human TLR7/8; test: Human PBMC cell-based assay, RNA-Ig (SL4-Ig) stimulus, cytokine ELISA; conditions: Human PBMC IL-6 Inhibition (SL4-Ig Ligand); read-out: Human PBMC IC50
T1 construct: IC50; other: Hu PBMC; ligand RNA-Ig; analyte IL-6; analyte TNFα; ligand R848; IC50 against the RNA-Ig TLR7/8 stimulus; cytokine responses to RNA-Ig complexes in vitro; potency against the RNA-Ig TLR7/8 stimulus versus HCQ
Procedure: Briefly, 25 ml blood was diluted with 15 ml PBS (without Ca^2+, Mg^2+) in a 50 ml conical tube, and 12 ml Histopaque was underlaid using a spinal needle. Tubes were centrifuged for 45 minutes at 1200 rpm (350×g), and PBMC were collected from the buffy coat. Cells were then washed twice in PBS, and red blood cells were lysed by suspension in 5 ml ammonium chloride solution (1× Red Blood Cell Lysis Buffer, eBioscience) for 5 minutes at room temperature.
Antagonist compounds solubilized and serial diluted in 100% DMSO were added in triplicate to cells to yield a final concentration of 0.1% DMSO (v/v). Hydroxychloroquine (Acros Organics) solubilized and serial diluted in PBS was added in triplicate to cells. […] The resulting “RNA-Ig” stimulus was incubated at room temperature for 15-30 minutes before adding to cells. PBMC were incubated with the various TLR agonists for 20 hours at 37° C., 5% CO2. Cell culture supernatants were collected, and levels of various human cytokines were assessed as indicated by standard ELISA procedure according to the manufacturer's recommended protocol (BD Biosciences, Inc., San Diego, Calif.).

[2] = biological target: T2, Mouse TLR7 (Mus musculus, UniProt P58681); test: Mouse spleen cell-based assay, R848 stimulus, IL-6 ELISA; conditions: Mouse Splenocyte IL-6 Inhibition (R848 Ligand); read-out: Mouse Splenocyte IC50
T2 construct: endogenous in cells; host or cells: female BALB/c mice, in vivo
T2 sequence (P58681 27-1050): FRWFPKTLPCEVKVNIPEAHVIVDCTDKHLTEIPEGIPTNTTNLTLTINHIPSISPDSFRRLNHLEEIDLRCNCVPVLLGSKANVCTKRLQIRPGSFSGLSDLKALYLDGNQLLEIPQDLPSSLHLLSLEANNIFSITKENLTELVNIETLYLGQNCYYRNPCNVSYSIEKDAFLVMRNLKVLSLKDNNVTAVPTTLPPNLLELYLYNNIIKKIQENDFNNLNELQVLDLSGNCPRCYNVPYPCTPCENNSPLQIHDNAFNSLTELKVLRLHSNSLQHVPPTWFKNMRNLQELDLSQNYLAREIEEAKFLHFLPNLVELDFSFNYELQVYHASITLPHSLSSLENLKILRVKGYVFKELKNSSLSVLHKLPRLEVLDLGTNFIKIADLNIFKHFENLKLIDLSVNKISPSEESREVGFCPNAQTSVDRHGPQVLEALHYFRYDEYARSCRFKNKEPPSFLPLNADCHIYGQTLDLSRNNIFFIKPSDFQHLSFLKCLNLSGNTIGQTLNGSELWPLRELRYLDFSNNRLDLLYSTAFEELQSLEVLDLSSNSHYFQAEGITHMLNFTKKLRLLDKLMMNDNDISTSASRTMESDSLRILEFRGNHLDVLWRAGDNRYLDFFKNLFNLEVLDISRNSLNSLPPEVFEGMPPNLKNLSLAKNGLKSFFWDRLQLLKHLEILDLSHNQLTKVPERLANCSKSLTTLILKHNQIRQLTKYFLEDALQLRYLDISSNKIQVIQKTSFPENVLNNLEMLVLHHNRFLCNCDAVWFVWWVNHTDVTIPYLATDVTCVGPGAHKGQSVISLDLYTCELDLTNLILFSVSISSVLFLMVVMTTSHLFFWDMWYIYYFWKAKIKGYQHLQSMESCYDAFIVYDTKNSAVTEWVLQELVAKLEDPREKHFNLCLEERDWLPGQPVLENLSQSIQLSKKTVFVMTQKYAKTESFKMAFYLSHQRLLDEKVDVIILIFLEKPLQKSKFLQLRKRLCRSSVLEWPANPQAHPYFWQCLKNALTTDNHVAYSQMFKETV
Procedure: Spleens were harvested from female BALB/c mice (Jackson Labs, Bar Harbor, Me.) euthanized by CO2. A single cell suspension was obtained by passing spleens through a 40 μm nylon cell strainer. Cells were washed twice with 50 ml PBS (Mediatech, Inc., Manassas, Va.) and red blood cells were lysed in 5 ml RBC Lysis buffer (eBioscience, Inc., San Diego, Calif.) for 5 minutes at room temperature. Cells were washed twice more in PBS and finally resuspended in supplemented RPMI-1640 at 2.5×10^6 cells/ml. Cells were plated at 100 μl/well (2.5×10^5 cells/well) in 96-well tissue culture treated plates (Falcon). Serial dilutions of compounds solubilized in 100% DMSO were added in triplicate to cells to yield a final concentration of 0.1% DMSO. Cells were incubated with compound for 30 minutes at 37° C., 5% CO2 before adding 100 μl/well of 740 nM R848 (Resiquimod; GLSynthesis, Worcester, Mass.) in complete media for a final concentration of 370 nM R848. Cells were incubated for 20 hours at 37° C., 5% CO2. Culture supernatants were collected, and levels of IL-6 were assessed by standard ELISA procedure according to the manufacturer's recommended protocol (BD Biosciences, Inc., San Diego, Calif.).

[3] = biological target: T2, Mouse TLR7; test: Short-term in vivo (STIV) assay: plasma IL-6 after s.c. R848
Procedure: Figure Legend: Female BALB/c mice were dosed by oral gavage with Vehicle alone (0.5% aqueous methyl-cellulose) or compound ER-892887 formulated in Vehicle at 100 mg/kg or 300 mg/kg. At 13 or 24 hours following oral dosing, mice were injected subcutaneously with 15 ug R848 to stimulate TLR7. Blood plasma was collected by cardiac puncture, and the IL-6 level at 1.5 hours after TLR7 stimulation was then assessed by standard ELISA procedure. Percent suppression indicated is relative to IL-6 induction following Vehicle control dosing. Statistical significance was determined by Mann-Whitney test.
To assess compound potency in vivo against mouse TLR7, a short-term in vivo (STIV) assay was utilized. Briefly, mice were orally dosed with compounds and at various time points afterwards were injected subcutaneously with agonist R848 to stimulate TLR7. The plasma IL-6 level following R848 stimulation was then measured by ELISA to assess compound potency and duration-of-action. […] Therefore, the activity of compounds in the STIV assay can be confidently attributed to their modulation of the TLR7 pathway. A single oral dose of ER-892887 at 300 mg/kg suppresses the R848/TLR7/IL-6 pathway in vivo by 80-90% for at least 24 hours (see FIG. 1).
Six to eight week old female BALB/c mice (Jackson Labs, Bar Harbor, Me.) were dosed by oral gavage in 200 ul volume with antagonist compounds formulated in 0.5% aqueous methyl-cellulose (Sigma, St. Louis, Mo.). At various time points afterwards, mice were injected subcutaneously (s.c.) in 100 ul volume with 15 ug R848 (Resiquimod; GLSynthesis, Worcester, Mass.) to stimulate TLR7. Blood plasma was collected by cardiac puncture, and levels of IL-6 at 1.5 hours after TLR7 stimulation were then assessed by standard ELISA procedure according to the manufacturer's recommended protocol (R&D Systems).

[4] = time point 6 hr, dose 33 mg/kg oral
[5] = time point 6 hr, dose 100 mg/kg oral
[6] = time point 6 hr, dose 300 mg/kg oral
[7] = time point 13 hr, dose 33 mg/kg oral
[8] = time point 13 hr, dose 100 mg/kg oral
[9] = time point 13 hr, dose 300 mg/kg oral
[10] = time point 24 hr, dose 100 mg/kg oral
[11] = time point 24 hr, dose 300 mg/kg oral

Compound: 5-(3,4-dimethoxyphenyl)-2-(6-methyl-1,2,3,6-tetrahydropyridin-4-yl)-7-(trifluoromethyl)-4,5,6,7-tetrahydropyrazolo[1,5-a]pyrimidine hydrochloride and 5-(3,4-dimethoxyphenyl)-2-(2-methyl-1,2,3,6-tetrahydropyridin-4-yl)-7-(trifluoromethyl)-4,5,6,7-tetrahydropyrazolo[1,5-a]pyrimidine hydrochloride [ER-896993]
- IC50 [1]: 38 nM

Compound: COc1ccc(C2CC(C(F)F)n3nc(-c4ccc(C(=O)N5CCNCC5)cc4)cc3N2)cc1OC (racemic) [ER-894466]
- IC50 [2]: 420 nM
- IC50 [1]: 43 nM

Compound: COc1ccc([C@@H]2C[C@H](C(F)(F)F)n3nc(C4CCNCC4)cc3N2)cc1OC [ER-885681]
- % Suppression vs. Vehicle ([3]; time point 3 hr, dose 33 mg/kg oral): 90%
- % Suppression vs. Vehicle ([3]; time point 3 hr, dose 100 mg/kg oral): 98%
- % Suppression vs. Vehicle ([3]; time point 3 hr, dose 300 mg/kg oral): 99%
- % Suppression vs. Vehicle [3, 4]: 42%
- % Suppression vs. Vehicle [3, 5]: 81%
- % Suppression vs. Vehicle [3, 6]: 96%
- % Suppression vs. Vehicle [3, 7]: 0%
- % Suppression vs. Vehicle [3, 8]: 7%
- % Suppression vs. Vehicle [3, 9]: 50%
- IC50 [1]: 173 nM

Compound: COc1ccc([C@H]2C[C@@H](C(F)(F)F)n3nc(C4CCNCC4)cc3N2)cc1OC [ER-885682]
- IC50 [1]: 357 nM

Compound: COc1ccc(C2CC(C(F)(F)F)n3nc(C4CCNCC4)cc3N2)cc1OC (centres unmarked) [ER-887084]
- IC50 [1]: 101 nM

Compound: Cc1nn(C)cc1[C@@H]1C[C@H](C(F)(F)F)n2nc(-c3ccc4nn(C)cc4c3)cc2N1 [ER-893990]
- IC50 [2]: 3920 nM
- IC50 [1]: 4460 nM

Compound: COc1ccc([C@@H]2C[C@H](C(F)F)n3nc(-c4ccc(C(=O)N5CCNCC5)cc4)cc3N2)cc1OC [ER-895302]
- IC50 [2]: 120 nM
- % Suppression vs. Vehicle [3, 4]: 93%
- % Suppression vs. Vehicle [3, 5]: 99%
- % Suppression vs. Vehicle [3, 6]: 99%
- % Suppression vs. Vehicle [3, 7]: 14%
- % Suppression vs. Vehicle [3, 8]: 16%
- % Suppression vs. Vehicle [3, 9]: 91%
- % Suppression vs. Vehicle ([3]; time point 24 hr, dose 33 mg/kg oral): 30%
- % Suppression vs. Vehicle [3, 10]: 0%
- % Suppression vs. Vehicle [3, 11]: 37%
- IC50 [1]: 25 nM

Compound: COc1ccc([C@H]2C[C@@H](C(F)F)n3nc(-c4ccc(C(=O)N5CCNCC5)cc4)cc3N2)cc1OC [ER-895303]
- IC50 [2]: 270 nM
- % Suppression vs. Vehicle [3, 4]: 92%
- % Suppression vs. Vehicle [3, 7]: 0%
- % Suppression vs. Vehicle [3, 8]: 18%
- % Suppression vs. Vehicle [3, 9]: 90%
- % Suppression vs. Vehicle [3, 10]: 0%
- % Suppression vs. Vehicle [3, 11]: 60%
- IC50 [1]: 23 nM

Compound: COc1ccc(C2CC(C(F)(F)F)n3nc(-c4ccc(C(=O)NC5CCNC5)nc4)cc3N2)cc1OC (centres unmarked) [ER-895809]
- IC50 [1]: 21 nM

Compound: COc1ccc(C2CC(C(F)(F)F)n3nc(-c4ccc(C(=O)NC5CCNC5)nc4)cc3N2)cc1OC (centres unmarked) [ER-895810]
- IC50 [1]: 27 nM

Compound: COc1ccc(C2CC(C(F)(F)F)n3nc(-c4cccc(C(=O)NC5CCNC5)c4)cc3N2)cc1OC (centres unmarked) [ER-895811]
- IC50 [1]: 111 nM

Compound: COc1ccc(C2CC(C(F)(F)F)n3nc(-c4ccc(C(=O)N5CCNCC5)nc4)cc3N2)cc1OC (centres unmarked) [ER-896133]
- IC50 [1]: 64 nM

Compound: COc1ccc(C2CC(C(F)(F)F)n3nc(-c4ccc(C(=O)NC5CCNCC5)nc4)cc3N2)cc1OC (centres unmarked) [ER-896134]
- IC50 [1]: 12 nM

Compound: COc1ccc(C2CC(C(F)(F)F)n3nc(-c4ccc(C(=O)NC5CCCNC5)nc4)cc3N2)cc1OC (centres unmarked) [ER-896135]
- IC50 [1]: 18 nM

Compound: COc1ccc(C2CC(C(F)(F)F)n3nc(-c4cccc(C(=O)N5CCNCC5)c4)cc3N2)cc1OC (centres unmarked) [ER-896388]
- IC50 [1]: 122 nM

Compound: COc1ccc(C2CC(C(F)(F)F)n3nc(C(=O)N4CCNCC4)cc3N2)cc1OC (centres unmarked) [ER-896452]
- IC50 [1]: 49 nM
